Usually mortality stands for the share of the test organisms that died.

This is an account of results in patent US9422280B2, “N-substituted hetero-bicyclic compounds and derivatives for combating animal pests II” (BASF SE, priority 2012, dated 2016).

Format in all cases: in vivo
In assay [1] the test system is Cowpea Aphid (Aphis craccivora). Description: Cowpea aphid spray test on potted cowpea plants. The note with it: sprayed cowpea plants, population reduction assessed after 24, 72 and 120 hours, read-out: mortality in comparison with untreated controls. The method, then: B.3 Cowpea Aphid (Aphis craccivora)
The active compound is dissolved at the desired concentration in a mixture of 1:1 (vol:vol) distilled water:acetone. The test solution is prepared at the day of use.
Potted cowpea plants colonized with approximately 100-150 aphids of various stages were sprayed after the pest population has been recorded. Population reduction was assessed after 24, 72, and 120 hours.

The subject of assay [2] is Vetch Aphid (Megoura viciae). Description: Vetch aphid broad bean leaf disk microtiter test. The conditions noted are these: foliar, 120 h, sprayed broad bean leaf disks, 5 days, read-out: mortality in comparison with untreated controls. The protocol:
B.4 Vetch Aphid (Megoura viciae)
For evaluating control of vetch aphid (Megoura viciae) through contact or systemic means the test unit consisted of 24-well-microtiter plates containing broad bean leaf disks.
The compounds were formulated using a solution containing 75% v/v water and 25% v/v DMSO. Different concentrations of formulated compounds were sprayed onto the leaf disks at 2.5 μl, using a custom built micro atomizer, at two replications.
After application, the leaf disks were air-dried and 5-8 adult aphids placed on the leaf disks inside the microtiter plate wells. The aphids were then allowed to suck on the treated leaf disks and incubated at about 23±1° C. and about 50±5% relative humidity for 5 days. Aphid mortality and fecundity was then visually assessed.

In assay [3] the test system is Rice Brown Plant Hopper (Nilaparvata lugens). Description: Rice brown plant hopper spray test on rice seedlings. The conditions noted are these: sprayed rice seedlings, adults, after 72 hours, read-out: mortality in comparison with untreated controls. The method, then: B.9 Rice Brown Plant Hopper (Nilaparvata lugens)
Rice seedlings were cleaned and washed 24 hours before spraying. The active compounds were formulated in 50:50 acetone:water (vol:vol) and 0.1% vol/vol surfactant (EL 620) was added. Potted rice seedlings were sprayed with 5 ml test solution, air dried, placed in cages and inoculated with 10 adults. Treated rice plants were kept at about 28-29° C. and relative humidity of about 50-60%. Percent mortality was recorded after 72 hours.

Assay [4] deals with Rice Green Leafhopper (Nephotettix virescens). Description: Rice green leafhopper spray test on rice seedlings. The note with it: sprayed rice seedlings, adults, after 72 hours, read-out: mortality in comparison with untreated controls. The protocol:
B.8 Rice Green Leafhopper (Nephotettix virescens)
Rice seedlings were cleaned and washed 24 hours before spraying. The active compounds were formulated in 50:50 acetone:water (vol:vol), and 0.1% vol/vol surfactant (EL 620) was added. Potted rice seedlings were sprayed with 5 ml test solution, air dried, placed in cages and inoculated with 10 adults. Treated rice plants were kept at about 28-29° C. and relative humidity of about 50-60%. Percent mortality was recorded after 72 hours.

In assay [5] the test system is Silverleaf Whitefly (bemisia argentifolii). Description: Silverleaf whitefly spray test on cotton plants. The conditions noted are these: 72 h, sprayed cotton plants, whitefly adults, 3 days after treatment, read-out: mortality in comparison with untreated controls. The text has this:
B.5 Silverleaf Whitefly (bemisia argentifolii)
(§1) The active compounds were formulated in cyclohexanone as a 10,000 ppm solution supplied in tubes. The tubes were inserted into an automated electrostatic sprayer equipped with an atomizing nozzle and they served as stock solutions for which lower dilutions were made in 50% acetone:50% water (v/v). A nonionic surfactant (Kinetic®) was included in the solution at a volume of 0.01% (v/v).
Cotton plants at the cotyledon stage (one plant per pot) were sprayed by an automated electrostatic plant sprayer equipped with an atomizing spray nozzle. The plants were dried in the sprayer fume hood and then removed from the sprayer. Each pot was placed into a plastic cup and about 10 to 12 whitefly adults (approximately 3-5 days old) were introduced. The insects were collected using an aspirator and a nontoxic Tygon® tubing connected to a barrier pipette tip. The tip, containing the collected insects, was then gently inserted into the soil containing the treated plant, allowing insects to crawl out of the tip to reach the foliage for feeding. Cups were covered with a reusable screened lid. […] Mortality was assessed 3 days after treatment, compared to untreated control plants.

Assay [6] deals with Boll Weevil (Anthonomus grandis). Description: Boll weevil insect diet microtiter test. The conditions noted are these: 120 h, sprayed onto insect diet with eggs, egg and larval mortality after 5 days, read-out: mortality in comparison with untreated controls. The protocol:
B.6 Boll Weevil (Anthonomus grandis)
For evaluating control of boll weevil (Anthonomus grandis) the test unit consisted of 24-well-microtiter plates containing an insect diet and 20-30 A. grandis eggs.
The compounds were formulated using a solution containing 75% v/v water and 25% v/v DMSO. Different concentrations of formulated compounds were sprayed onto the insect diet at 20 μl, using a custom built micro atomizer, at two replications.
After application, microtiter plates were incubated at about 23±1° C. and about 50±5% relative humidity for 5 days. Egg and larval mortality was then visually assessed.

Assay [7] has as its system Green Peach Aphid (Myzus persicae). Description: Green peach aphid foliar spray test on bell pepper. The note with it: 120 h, sprayed bell pepper plants, aphid mortality after 5 days, read-out: mortality in comparison with untreated controls.
Text: B.1 Green Peach Aphid (Myzus persicae)
as §1
Bell pepper plants at the first true-leaf stage were infested prior to treatment by placing heavily infested leaves from the main colony on top of the treatment plants. Aphids were allowed to transfer overnight to accomplish an infestation of 30-50 aphids per plant and the host leaves were removed. The infested plants were then sprayed by an automated electrostatic plant sprayer equipped with an atomizing spray nozzle. The plants were dried in the sprayer fume hood, removed, and then maintained in a growth room under fluorescent lighting in a 24-hr photoperiod at about 25° C. and about 20-40% relative humidity. Aphid mortality on the treated plants, relative to mortality on untreated control plants, was determined after 5 days.

For assay [8], the system named is Orchid Thrips (dichromothrips corbetti). Description: Orchid thrips floral-immersion test. The note with it: dipped orchid flowers, adult thrips, 72 hours after treatment, read-out: mortality in comparison with untreated controls. The method, then:
B.7 Orchid Thrips (dichromothrips corbetti)
Dichromothrips corbetti adults used for bioassay were obtained from a colony maintained continuously under laboratory conditions. For testing purposes, the test compound is diluted in a 1:1 mixture of acetone:water (vol:vol), plus 0.01% vol/vol Alkamuls® EL 620 surfactant.
Thrips potency of each compound was evaluated by using a floral-immersion technique. Plastic petri dishes were used as test arenas. All petals of individual, intact orchid flowers were dipped into treatment solution and allowed to dry. Treated flowers were placed into individual petri dishes along with about 20 adult thrips. The petri dishes were then covered with lids. All test arenas were held under continuous light and a temperature of about 28° C. for duration of the assay. After 3 days, the numbers of live thrips were counted on each flower, and along inner walls of each petri dish. The percentmortality was recorded 72 hours after treatment.

Assay [9] relates to Cotton Aphid (Aphis gossypii). Description: Cotton aphid cotyledon dip test. The conditions noted are these: 120 h, cotton cotyledons dipped, mortality counts after 5 days, read-out: mortality in comparison with untreated controls. The text has this:
B.2 Cotton Aphid (Aphis gossypii)
The active compounds were formulated in 50:50 (vol:vol) acetone:water and 100 ppm Kinetica™ surfactant.
Cotton plants at the cotyledon stage (one plant per pot) were infested by placing a heavily infested leaf from the main colony on top of each cotyledon. The aphids were allowed to transfer to the host plant overnight, and the leaf used to transfer the aphids was removed. The cotyledons were dipped in the test solution and allowed to dry. After 5 days, mortality counts were made.

Structures are written as SMILES.

In the case of `CSc1nc2cccn(Cc3ccc(Cl)nc3)c-2n1` [E1.4, 4-[(6-chloro-3-pyridyl)methyl]-2-methylsulfanyl-imidazo[4,5-b]pyridine], the mortality at 500 ppm in assay [1] was at least 75%. In addition, in assay [2], the mortality at 800 ppm is at least 75%.

As to `Clc1ccc(Cn2cccc3nc(Cl)nc2-3)cn1` [E1.8, 2-chloro-4-[(6-chloro-3-pyridyl)methyl]imidazo[4,5-b]pyridine], the mortality at 500 ppm in assay [3], in [4], in assay [5], in [8] and in assay [1] was at least 75% throughout. For the same compound, the mortality at 2500 ppm in assay [6] was above 75%. The mortality at 300 ppm in assay [7] and in [9] was at least 75% each time. In addition, the mortality at 800 ppm in assay [2] was at least 75%.

Regarding `FC(F)(F)c1nc2cccn(Cc3ccc(Cl)nc3)c-2n1` [E1.15, 4-[(6-chloro-3-pyridyl)methyl]-2-(trifluoromethyl)imidazo[4,5-b]pyridine], the mortality at 500 ppm in assay [3], in [4], in assay [5], in assay [8] and in assay [1] was at least 75% throughout. Moreover, in [9], the mortality at 300 ppm is at least 75%. Also, the mortality at 800 ppm in [2] was at least 75%.
